According to publication PMC8642446 (Acta Pharmaceutica Sinica. B, 2021):

Biological target: T1, ICAT (inhibitor of β-catenin and T-cell factor; β-catenin-interacting protein 1) (Homo sapiens, UniProt Q9NSA3)
T1 sequence (Q9NSA3 1-81): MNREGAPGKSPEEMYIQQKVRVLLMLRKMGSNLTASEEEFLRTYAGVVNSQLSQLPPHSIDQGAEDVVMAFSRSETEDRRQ
Experiment: MST with EGFP-ICAT in cell lysate
Type: binding

**Q.** For `CC1=CC(=O)[C@@H](O)[C@]2(C)[C@H]3[C@@H](O)[C@H](O)[C@]4(C)OC[C@@]35[C@@H](C[C@@H]12)OC(=O)[C@H](O)[C@]54O` [BD, Bruceine D], which Kd is on record?
**A.** The Kd was 33.2 µM.
